# Reference: patent US20040116522A1, “Medicinal solutions” (priority 2001, published 2004)
# Tests used:
# [1] = Serum drug concentration after subcutaneous implantation of the minipump of Example 6; format: in vivo; details: from s.c. minipump of Example 6 in male SD rats
# Excerpt: The subcutaneous implantation type minipump prepared in Example 6 was subcutaneously implanted in the back of 7-week-old male SD rats. After a predetermined time after the implantation, blood was drawn from the tail vein of the rats, and serum was separated.
# [2] = cited from earlier work
SMILES,Period of sustained release [1] [days],pKa [2]
"CONC(=O)Nc1ccc(-c2sc3c(c2CN(C)Cc2ccccc2)c(=O)n(-c2ccccc2)c(=O)n3Cc2c(F)cccc2F)cc1 [Reference Example 7, 5-(N-Benzyl-N-methylaminomethyl)-1-(2,6-difluorobenzyl)-6-[4-(3-methoxyureido)phenyl]-3-phenylthieno[2,3-d]pyrimidine-2,4(1H,3H)-dione]",21,
O=C(O)c1cc2ccccc2cc1O [3-hydroxy-2-naphthoic acid],,2.708
